Measured values: the NIST ThermoML archive (doi:10.1021/je049776w)
Numbers after ± are expanded uncertainties.

Experiments:
[1] = 101.3 kPa, Liquid
[2] = xn = mol fraction of the nth substance listed; settings: 101.3 kPa, Liquid

CCCCCCC [heptane]
[1]
Settings | mass density [kg/m3] | viscosity [mPa·s]
298.15 K | 679.9 ± 1.3 | 0.4009 ± 0.012
303.15 K | 675.65 ± 1.3 | 0.375 ± 0.012
313.15 K | 667.08 ± 1.3 | 0.3373 ± 0.011
323.15 K | 658.37 ± 1.3 | 0.3074 ± 0.011
333.15 K | 649.53 ± 1.4 | 0.2793 ± 0.01
343.15 K | 640.47 ± 1.4 | 0.2541 ± 0.0099

CCCCCCCC [octane] + Cc1ccc(C)cc1
[2], x2 = 0
Settings | mass density [kg/m3] | viscosity [mPa·s]
298.15 K | 699.9 ± 1.2 | 0.5206 ± 0.015
303.15 K | 695.72 ± 1.2 | 0.4837 ± 0.014
313.15 K | 687.5 ± 1.2 | 0.4306 ± 0.013
323.15 K | 679.37 ± 1.3 | 0.3864 ± 0.012
333.15 K | 671.02 ± 1.3 | 0.3495 ± 0.011
343.15 K | 662.54 ± 1.3 | 0.3139 ± 0.011
353.15 K | 653.8 ± 1.4 | 0.284 ± 0.01

CN1CCCC1=O [N-methylpyrrolidone] + Cc1ccc(C)cc1
[2], x2 = 0
Settings | mass density [kg/m3] | viscosity [mPa·s]
303.15 K | 1023.47 ± 2.7 | 1.554 ± 0.053
313.15 K | 1014.55 ± 2.7 | 1.332 ± 0.046
323.15 K | 1005.66 ± 2.7 | 1.16 ± 0.041
333.15 K | 996.71 ± 2.6 | 1.022 ± 0.036
343.15 K | 987.75 ± 2.6 | 0.9084 ± 0.032
353.15 K | 978.76 ± 2.6 | 0.8127 ± 0.029

CCCCCCC [heptane] + Cc1ccc(C)cc1
[2], x2 = 0
Settings | mass density [kg/m3] | viscosity [mPa·s]
298.15 K | 679.9 ± 1.3 | 0.4009 ± 0.012
303.15 K | 675.65 ± 1.3 | 0.375 ± 0.012
313.15 K | 667.08 ± 1.3 | 0.3373 ± 0.011
323.15 K | 658.37 ± 1.3 | 0.3074 ± 0.011
333.15 K | 649.53 ± 1.4 | 0.2793 ± 0.01
343.15 K | 640.47 ± 1.4 | 0.2541 ± 0.0099

CN1CCCC1=O [N-methylpyrrolidone]
[1]
Settings | mass density [kg/m3] | viscosity [mPa·s]
303.15 K | 1023.47 ± 2.7 | 1.554 ± 0.053
313.15 K | 1014.55 ± 2.7 | 1.332 ± 0.046
323.15 K | 1005.66 ± 2.7 | 1.16 ± 0.041
333.15 K | 996.71 ± 2.6 | 1.022 ± 0.036
343.15 K | 987.75 ± 2.6 | 0.9084 ± 0.032
353.15 K | 978.76 ± 2.6 | 0.8127 ± 0.029

CCCCCCCC [octane]
[1]
Settings | mass density [kg/m3] | viscosity [mPa·s]
298.15 K | 699.9 ± 1.2 | 0.5206 ± 0.015
303.15 K | 695.72 ± 1.2 | 0.4837 ± 0.014
313.15 K | 687.5 ± 1.2 | 0.4306 ± 0.013
323.15 K | 679.37 ± 1.3 | 0.3864 ± 0.012
333.15 K | 671.02 ± 1.3 | 0.3495 ± 0.011
343.15 K | 662.54 ± 1.3 | 0.3139 ± 0.011
353.15 K | 653.8 ± 1.4 | 0.284 ± 0.01

C1CCCCC1 [cyclohexane] + Cc1ccc(C)cc1
[2], x2 = 0
Settings | mass density [kg/m3] | viscosity [mPa·s]
298.15 K | 773.82 ± 0.96 | 0.9027 ± 0.023
303.15 K | 769.1 ± 0.97 | 0.8205 ± 0.021
313.15 K | 759.61 ± 1 | 0.6963 ± 0.018
323.15 K | 749.98 ± 1 | 0.5984 ± 0.016
333.15 K | 740.23 ± 1.1 | 0.5195 ± 0.015

Cc1ccc(C)cc1 [1,4-dimethylbenzene]
[1]
Settings | mass density [kg/m3] | viscosity [mPa·s]
298.15 K | 856.7 ± 0.7 | 0.6162 ± 0.017
303.15 K | 852.35 ± 0.72 | 0.5715 ± 0.015
313.15 K | 843.64 ± 0.74 | 0.508 ± 0.014
323.15 K | 834.9 ± 0.77 | 0.4599 ± 0.013
333.15 K | 826.09 ± 0.8 | 0.4298 ± 0.013
343.15 K | 817.17 ± 0.83 | 0.3783 ± 0.012
353.15 K | 808.22 ± 0.85 | 0.3382 ± 0.011

C1CCCCC1 [cyclohexane]
[1]
Settings | mass density [kg/m3] | viscosity [mPa·s]
298.15 K | 773.82 ± 0.96 | 0.9027 ± 0.023
303.15 K | 769.1 ± 0.97 | 0.8205 ± 0.021
313.15 K | 759.61 ± 1 | 0.6963 ± 0.018
323.15 K | 749.98 ± 1 | 0.5984 ± 0.016
333.15 K | 740.23 ± 1.1 | 0.5195 ± 0.015

Cc1ccc(C)cc1 [1,4-dimethylbenzene] + C1CCCCC1
[2]
Settings | mass density, 298.15 K [kg/m3] | mass density, 303.15 K [kg/m3] | mass density, 313.15 K [kg/m3] | mass density, 323.15 K [kg/m3] | mass density, 333.15 K [kg/m3] | viscosity, 298.15 K [mPa·s] | viscosity, 303.15 K [mPa·s] | viscosity, 313.15 K [mPa·s] | viscosity, 323.15 K [mPa·s] | viscosity, 333.15 K [mPa·s]
x1 = 0.0809 | 779.58 ± 0.94 | 774.92 ± 0.95 | 765.5 ± 0.98 | 755.99 ± 1 | 746.36 ± 1 | 0.8232 ± 0.021 | 0.7475 ± 0.019 | 0.6401 ± 0.017 | 0.5594 ± 0.015 | 0.4874 ± 0.014
x1 = 0.1655 | 786.02 ± 0.92 | 781.39 ± 0.93 | 772.07 ± 0.96 | 762.67 ± 0.99 | 753.14 ± 1 | 0.757 ± 0.02 | 0.6992 ± 0.018 | 0.5981 ± 0.016 | 0.526 ± 0.015 | 0.4646 ± 0.013
x1 = 0.2537 | 792.96 ± 0.9 | 788.36 ± 0.91 | 779.14 ± 0.94 | 769.83 ± 0.97 | 760.42 ± 1 | 0.7177 ± 0.019 | 0.6524 ± 0.017 | 0.5739 ± 0.016 | 0.5037 ± 0.014 | 0.452 ± 0.013
x1 = 0.3457 | 800.58 ± 0.88 | 796.02 ± 0.89 | 786.88 ± 0.92 | 777.65 ± 0.95 | 768.33 ± 0.98 | 0.6773 ± 0.018 | 0.6311 ± 0.017 | 0.5481 ± 0.015 | 0.4861 ± 0.014 | 0.4338 ± 0.013
x1 = 0.4422 | 808.68 ± 0.85 | 804.15 ± 0.86 | 795.1 ± 0.89 | 785.98 ± 0.92 | 776.74 ± 0.95 | 0.6575 ± 0.017 | 0.6059 ± 0.016 | 0.5313 ± 0.015 | 0.4722 ± 0.014 | 0.423 ± 0.013
x1 = 0.5431 | 817.38 ± 0.82 | 812.89 ± 0.84 | 803.91 ± 0.87 | 794.86 ± 0.89 | 785.72 ± 0.92 | 0.6326 ± 0.017 | 0.5868 ± 0.016 | 0.5185 ± 0.014 | 0.4638 ± 0.013 | 0.4186 ± 0.013
x1 = 0.6491 | 826.54 ± 0.8 | 822.09 ± 0.81 | 813.16 ± 0.84 | 804.19 ± 0.86 | 795.14 ± 0.89 | 0.6219 ± 0.017 | 0.5787 ± 0.016 | 0.5108 ± 0.014 | 0.458 ± 0.013 | 0.4131 ± 0.013
x1 = 0.7603 | 836.16 ± 0.77 | 831.71 ± 0.78 | 822.86 ± 0.81 | 813.98 ± 0.83 | 805 ± 0.86 | 0.6175 ± 0.017 | 0.5726 ± 0.015 | 0.511 ± 0.014 | 0.4569 ± 0.013 | 0.4109 ± 0.013
x1 = 0.8771 | 846.17 ± 0.73 | 841.79 ± 0.75 | 833 ± 0.78 | 824.18 ± 0.8 | 815.3 ± 0.83 | 0.6139 ± 0.017 | 0.5701 ± 0.015 | 0.5052 ± 0.014 | 0.4567 ± 0.013 | 0.4124 ± 0.013
x1 = 1 | 856.7 ± 0.7 | 852.35 ± 0.72 | 843.64 ± 0.74 | 834.9 ± 0.77 | 826.09 ± 0.8 | 0.6162 ± 0.017 | 0.5715 ± 0.015 | 0.508 ± 0.014 | 0.4599 ± 0.013 | 0.4298 ± 0.013
